Measurements as given in paper PMC12020424, “Identification and Validation of Cyclic Peptides with Mucin-Selective, Location-Specific Binding in the Gastrointestinal Tract” (ACS Nano, 2025).
Bridge positions count the residues as written; N and C are the ends. Ends that are not written are not given here.

Experiments:
[1] = target: T1, MUC2 (Homo sapiens, UniProt Q02817); experiment: Phage display (CX7C library) against MUC2, Sanger sequencing; type: binding; settings: for % Prevalence: MUC2 phage screening, CX7C library, third round of panning, 16 sequenced candidates
Experimental: For each mucin of interest, 5 μg of mucin protein was diluted in 150 μL of Tris-buffered saline (TBS) and added to 2 wells of a microtiter plate. The plate was left overnight in a humidified, sealed container with agitation at 50 rpm. After the overnight mucin coating, the solution was poured out, and 300 μL of blocking buffer was added to the wells for 1 h. After the 1 h waiting period, the blocking buffer was poured out, and the wells were washed three times with 300 μL of Tris-buffered saline with TBST (TBS + 0.1% (v/v) Tween-20) to remove nonspecific binding on the mucin layer coating. Next, 5 μL of the C7C library diluted with 95 μL of TBST was added to each blocked well and placed on shaker for 45 min, before pouring out the nonbinding phage and washing the plate ten times with TBST. A 0.2 M glycine-HCl elution buffer (pH 2.2, 100 μL) was added to each well and placed on a shaker for 20 min to release the mucin-layer binding peptides on the plate as unamplified eluate, with the pH neutralized by 30 μL of neutralization buffer (1 M Tris-HCl, pH 9).
E. coli liquid cultures were prepared by adding E. coli cells to 20 mL of LB media and placing them in shaking conditions at 37 °C and 250 rpm for 2 h and 45 min. The unamplified eluate (1 μL of which was saved for titering) was added to the E. coli cultures under the same conditions for 4 h and 45 min for amplification. After amplification, the cultures were centrifuged for 10 min at 12,000 g RCF at 4 °C, and the supernatant was collected and spun again under the same conditions for 5 min. The top 16 mL of supernatant was collected and mixed with 4 mL of PEG/NaCl (20% (w/v) PEG-8000/2.5 M NaCl in water) to promote precipitation of the mucin-binding peptide-containing phage and left overnight.
Titering was performed to measure the amount of phages present in the solution. From the obtained unamplified eluate, 1 μL of unamplified eluate was added to 999 μL of LB solution to obtain a 10³ dilution. […]

[2] = target: T1, MUC2; experiment: Phage ELISA on MUC2; type: binding; settings: phage clones displaying the peptide, 10^7 PFU/μL, MUC2-coated plate, anti-M13/HRP, TMB, 450 nm, blank subtracted, three wells; vs random library and insertless phage
Excerpt: We next sought to validate the binding efficiency of these identified phage clones. We tested phage clones displaying peptides M2.1, M2.2, M2.3, and M2.4 for binding to MUC2, and phage clones displaying peptides M5.1, M5.2, M5.3, and M5.4 for binding to MUC5AC. We utilized a bacteriophage enzyme-linked immunosorbent assay to test the binding of the peptide hits to the specific target mucins, MUC2 and MUC5AC (Figure 2d). The spectrophotometer reported absorbance values at 450 nm. The intensity of the absorbance signal is proportional to the amount of peptide-mucin binding present in each sample. The negative controls (library samples and insertless samples) served as references for nonspecific binding.
First, mucin was coated onto the surface of a plastic plate overnight using the same process as that performed for the original phage display. The next morning, three wells of each phage clone were prepared, with each phage solution having a titer of 10^7 PFU/μL to ensure a fair comparison between the clones. […]
However, instead of eluting the bound phage, 100 μL of 1:2000 anti-M13/HRP mouse monoclonal antibody was added to each well, and the antibody was allowed to incubate with the wells for 30 min. […] The resulting solutions were analyzed by absorbance spectroscopy at a wavelength of 450 nm to determine the relative amount of phage present in each well.

| % Prevalence [1] [%] | repeated peptide hits (number of phage candidates) ([1]; phage display against MUC2, Sanger sequencing) | Sequence | phage ELISA absorbance vs negative controls [2] |
| --- | --- | --- | --- |
| 25 | 4 of 16 | CAKHRIMLC (disulfide 1-9 (inferred)) [Peptide M2.1, CX7C cyclic peptide hit for MUC2; AF647 conjugated at N-terminus in ex vivo tests] | significantly higher absorbances than the two negative controls |
| 6.25 |  | CTDKASSSC (disulfide 1-9 (inferred)) [Peptide M2.2, CX7C cyclic peptide hit for MUC2] | significantly higher absorbances than the two negative controls |
